# Reference: US20260241049A1, “Radiopharmaceutical Compositions Targeting Glypican-3 and Uses Thereof” (RayzeBio, Inc., priority 2023, published 2026)
# Starred links: 1 amine or outer side, 2 acyl side, 3 side chain; linkers in the order of their positions; H or OH if unused. Positions of bridges follow the written chain, without caps; N, C: chain ends. Non-standard residues stand in square brackets, D forms with d. Residues, ends and D or L forms follow the SMILES beside them. Groups on a side chain read outwards from the residue. *: point of attachment. Phe(4-(1-Me-pyrazol-4-yl)) = Cn1cc(-c2ccc(C[C@H](N)C(=O)O)cc2)cn1; NMeAla(isoquinolin-7-yl) = CN[C@@H](Cc1ccc2ccncc2c1)C(=O)O; Phe(4-CH2COOH) = N[C@@H](Cc1ccc(CC(=O)O)cc1)C(=O)O; 3Pal(6-Ph) = N[C@@H](Cc1ccc(-c2ccccc2)nc1)C(=O)O; Phe(4-COOH) = N[C@@H](Cc1ccc(C(=O)O)cc1)C(=O)O; Piperazinyl(4-CH2COOH) = O=C(O)CN1CCN(*)CC1; NMe2Nal = CN[C@@H](Cc1ccc2ccccc2c1)C(=O)O; AEF = NCCOc1ccc(C[C@H](N)C(=O)O)cc1; NMeQ = CN[C@@H](CCC(N)=O)C(=O)O; NMehSer = CN[C@@H](CCO)C(=O)O; NMeK = CN[C@@H](CCCCN)C(=O)O; NMeDap = CN[C@@H](CN)C(=O)O; NMeC = CN[C@@H](CS)C(=O)O; CO = O=C([*:1])[*:2]
# Target: Human Glypican3-Fc (Homo sapiens, UniProt P51654)
# Assay: SPR binding to Glypican-3, Method B-3 (Glypican3-Fc captured on Protein A chip, 5-point dilution series)
# Conditions: SPR method B-3
# Description: A Protein A sensor chip (Cytiva) was inserted into a Biacore T200 (Cytiva), priming was performed three times with a running buffer: HBS-P+, pH 7.4 (Cytiva), and equilibration was carried out at a flow rate of 30 μL/min. Glypican3-Fc was allowed to react for 60 seconds at a flow rate of 10 μL/min. After capturing human Glypican3-Fe, a peptide solution prepared to 10 mM in DMSO solution was diluted with a running buffer to a final concentration of 10 μM. After that, 5 serial dilution series (100 nM, 50 nM, 25 nM, 10 nM, 5 nM) of peptide solutions were prepared. Using the above samples, peptide kinetics for Glypican3 was obtained by SPR measurement. Kinetics evaluation of Glypican3 was performed by SPR measurements at a flow rate of 10 LL/min, setting the association time to 120 seconds and the disassociation time to 600 seconds.
# The obtained data by Method B-1, Method B-2, Method B-3 and Method B-4 were analyzed by follow. Single Cycle Kinetics was used as the kinetics evaluation model, and curve fitting was performed using Biacore T200 Evaluation Software Version 3.0 (Cytiva).
# Chain of Human Glypican3-Fc (P51654 with tags, fused parts or gaps limits assumed): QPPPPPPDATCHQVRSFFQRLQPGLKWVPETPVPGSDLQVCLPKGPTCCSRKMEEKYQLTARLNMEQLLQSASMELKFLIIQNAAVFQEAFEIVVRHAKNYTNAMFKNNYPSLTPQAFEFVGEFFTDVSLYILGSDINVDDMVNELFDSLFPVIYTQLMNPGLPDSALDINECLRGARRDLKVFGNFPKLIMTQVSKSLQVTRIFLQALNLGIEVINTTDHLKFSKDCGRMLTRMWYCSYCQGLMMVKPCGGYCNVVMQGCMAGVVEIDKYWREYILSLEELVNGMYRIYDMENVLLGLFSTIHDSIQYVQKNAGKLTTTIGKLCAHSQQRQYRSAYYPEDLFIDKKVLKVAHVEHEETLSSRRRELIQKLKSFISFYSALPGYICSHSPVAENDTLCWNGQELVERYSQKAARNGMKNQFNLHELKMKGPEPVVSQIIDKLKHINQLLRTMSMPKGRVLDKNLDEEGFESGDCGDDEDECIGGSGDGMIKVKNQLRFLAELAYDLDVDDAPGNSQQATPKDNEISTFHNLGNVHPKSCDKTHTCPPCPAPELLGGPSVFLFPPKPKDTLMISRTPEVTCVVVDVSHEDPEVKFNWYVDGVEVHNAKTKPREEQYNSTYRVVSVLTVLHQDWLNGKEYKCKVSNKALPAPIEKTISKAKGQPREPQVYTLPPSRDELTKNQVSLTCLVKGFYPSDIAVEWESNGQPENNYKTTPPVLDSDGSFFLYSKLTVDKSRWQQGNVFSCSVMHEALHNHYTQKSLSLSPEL
row,SMILES,Kd [nM]
1,CC[C@H](C)[C@@H]1NC(=O)[C@H](Cc2ccc(C(=O)O)cc2)NC(=O)[C@H](CCC(N)=O)N(C)C(=O)[C@H](CC(=O)O)NC(=O)[C@H](CCC(N)=O)N(C)C(=O)[C@H](CCC(N)=O)N(C)C(=O)CSC[C@@H](C(N)=O)N(C)C(=O)[C@H](Cc2ccc(-c3cnn(C)c3)cc2)NC(=O)CNC(=O)[C@H](Cc2ccc3ccccc3c2)N(C)C(=O)[C@H](Cc2ccc(OCCN)cc2)NC(=O)[C@H]([C@@H](C)CC)NC1=O [Conjugate 2-53] ({CH2CO}-[NMeQ][NMeQ]D[NMeQ][Phe(4-COOH)]II[AEF][NMe2Nal]G[Phe(4-(1-Me-pyrazol-4-yl))][NMeC]-NH2; thioether N-12),1
2,CC[C@H](C)[C@@H]1NC(=O)[C@H](Cc2ccc(C(=O)O)cc2)NC(=O)[C@H](CCC(N)=O)N(C)C(=O)[C@H](CC(=O)O)NC(=O)[C@H](CCOC)N(C)C(=O)[C@H](CCCCN)N(C)C(=O)CSC[C@@H](C(N)=O)N(C)C(=O)[C@H](Cc2ccc(-c3ccccc3)nc2)NC(=O)CNC(=O)[C@H](Cc2ccc3ccccc3c2)N(C)C(=O)[C@H](Cc2ccc(CC(=O)O)cc2)NC(=O)[C@H]([C@@H](C)CC)NC1=O [Conjugate 2-47] ({CH2CO}-[NMeK][NMehSer](Me)D[NMeQ][Phe(4-COOH)]II[Phe(4-CH2COOH)][NMe2Nal]G[3Pal(6-Ph)][NMeC]-NH2; thioether N-12),0.2
3,CC[C@H](C)[C@@H]1NC(=O)[C@H]([C@@H](C)OC)NC(=O)[C@H](Cc2ccc(C(=O)O)cc2)NC(=O)[C@H](CNC(=O)N2CCN(CC(=O)O)CC2)N(C)C(=O)[C@H](CC(=O)O)NC(=O)[C@H](CCOC)N(C)C(=O)[C@H](CNC(=O)N2CCN(CC(=O)O)CC2)N(C)C(=O)CSC[C@@H](C(N)=O)N(C)C(=O)[C@H](Cc2ccc(-c3ccccc3)nc2)NC(=O)CNC(=O)[C@H](Cc2ccc3ccccc3c2)N(C)C(=O)[C@H](Cc2ccc(OCCN)cc2)NC1=O [Conjugate 2-33] ({CH2CO}-[NMeDap]([CO-Piperazinyl(4-CH2COOH)])[NMehSer](Me)D[NMeDap]([CO-Piperazinyl(4-CH2COOH)])[Phe(4-COOH)]T(Me)I[AEF][NMe2Nal]G[3Pal(6-Ph)][NMeC]-NH2; thioether N-12 (inferred)),0.3
4,CC[C@H](C)[C@@H]1NC(=O)[C@H]([C@@H](C)OC)NC(=O)[C@H](Cc2ccc(C(=O)O)cc2)NC(=O)[C@H](CNC(=O)N2CCN(CC(=O)O)CC2)N(C)C(=O)[C@H](CC(=O)O)NC(=O)[C@H](CCOC)N(C)C(=O)[C@H](CNC(=O)N2CCN(CC(=O)O)CC2)N(C)C(=O)CSC[C@@H](C(N)=O)N(C)C(=O)[C@H](Cc2ccc(-c3ccccc3)nc2)NC(=O)CNC(=O)[C@H](Cc2ccc3ccncc3c2)N(C)C(=O)[C@H](Cc2ccc(OCCN)cc2)NC1=O [Conjugate 2-37] ({CH2CO}-[NMeDap]([CO-Piperazinyl(4-CH2COOH)])[NMehSer](Me)D[NMeDap]([CO-Piperazinyl(4-CH2COOH)])[Phe(4-COOH)]T(Me)I[AEF][NMeAla(isoquinolin-7-yl)]G[3Pal(6-Ph)][NMeC]-NH2; thioether N-12 (inferred)),1
